Measurements taken from US8106155B2, “Test kit for determining process for determining antibiotics containing a beta-lactam ring in a biological fluid” (Neogen Corporation, priority 1998, dated 2012).

Columns and labels:
[1] = target: T1, BlaR-CTD-β-lactamase fusion protein (UniProt P04190+P12287); assay: Example 2: BlaR-CTD-β-lactamase fusion protein with cephalosporin C magnetic beads, milk; type: binding, Bacillus licheniformis; details: nitrocefine absorbance at 482 nm, 47° C., detection at concentrations below the US standards listed
T1 construct: made in house; host or cells: E. coli
T1 sequence (P12287+P04190 with tags, fused parts or gaps): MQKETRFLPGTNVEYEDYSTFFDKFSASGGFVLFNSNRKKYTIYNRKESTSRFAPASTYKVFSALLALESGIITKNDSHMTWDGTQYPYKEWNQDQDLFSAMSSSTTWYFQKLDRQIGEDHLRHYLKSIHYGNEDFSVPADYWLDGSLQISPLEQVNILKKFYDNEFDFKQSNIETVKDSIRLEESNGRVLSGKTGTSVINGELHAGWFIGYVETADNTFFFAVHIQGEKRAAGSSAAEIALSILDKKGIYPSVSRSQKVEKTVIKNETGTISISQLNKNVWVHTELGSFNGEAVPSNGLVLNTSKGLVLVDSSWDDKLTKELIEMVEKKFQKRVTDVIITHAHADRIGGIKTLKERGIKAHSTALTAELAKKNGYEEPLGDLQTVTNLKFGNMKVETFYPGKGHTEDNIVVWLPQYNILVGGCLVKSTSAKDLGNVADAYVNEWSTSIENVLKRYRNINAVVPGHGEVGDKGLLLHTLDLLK
Text: This example illustrates the detection in milk of the 6 antibiotics containing a β-lactam ring which are controlled by the US authorities. The test described in this example uses the BlaR-CTD receptor in the form of a fusion protein with β-lacatamase and uses a support in the form of magnetic beads.
The BlaR-CTD-β-lactamase fusion protein is obtained by genetic coupling between the BlaR-CTD receptor (B. Joris et al., FEMS Microbiology Letters, 107-114, 1990) and Zn β-lactamase from Bacillus cereus (M. Hussain et al., 1985, J. Bact., 164:1, 223-229, 1985).
BioMag 4100 particles (available from DRG Instrument GmbH, Marburg, Germany, under the reference AM 4100 B) are used, the NH2 ends of which have been activated with glutaraldehyde in the following way: • one volume of initial solution of BioMag 4100 particles is rinsed 4 times with 5 volumes of 0.01M pH 6.0 pyridine buffer. The particles are taken up in 2.5 volumes of glutaraldehyde at 5% in pyridine buffer and are agitated by rotation for 3 hours at room temperature. They are then rinsed 10 times with 2 volumes of 0.01 M pH 7.0 Kpi buffer. The particles are then resuspended in 1 volume of 0.1 M cephalosporin C in Kpi buffer and are agitated by rotation overnight at +4° C. The final rinsing is carried out until the cephalasporin C has been completely removed from the 0.1 M pH 7.0 Kpi buffer. 2.3. Determination of the 6 Antibiotics Penicillin G, Ampicillin, Amoxicillin, Cloxacillin, Cephapirin and Certiofur in Milk. […]
50 μl of solution 1 are placed in the presence of […] of doped milk samples and incubated at 47° C. for 2 minutes. […] The absorbance of the residual solution at 482 nm is then measured relative to the nitrocefine solution.

BlaR-CTD receptor = target: T2, BlaR-CTD receptor (Bacillus licheniformis, UniProt P12287); assay: 3-minute rapid test: BlaR-CTD coupled to gold beads, membrane test device, milk; type: binding; details: 47° C.; for concentration detected in a sample of milk: test carried out in 3 minutes, positive when 1st band less intense than 2nd band; for Intensity 1st band: 3-minute test, scale 0 to 10, reference band 6
T2 construct: uses the BlaR-CTD receptor coupled to gold beads
Description: This example illustrates the detection in milk of antibiotics containing a β-lactam ring, which are controlled by the health authorities. The test described in this example uses the BlaR-CTD receptor coupled to gold beads which serve as labelling agents, and uses a support in the form of a test device comprising a solid support to which membranes are attached.
7 samples of fresh milk containing 0; 1; 2; 3; 4; 5 and 6 ppb of penicillin G, respectively, are prepared. Each of these solutions is then analyzed in the following way:
A 200 μl aliquot sample of milk and 45.27 μl of solution prepared in Example 1.1.3 are taken and placed in a glass flask. This mixture is incubated for 1 minute at 47° C. A test device is taken and placed vertically in the glass flask such that the first end of the test device is in contact with the mixture and such that the second end rests on the wall of the glass flask. The mixture is left to migrate on the test device, while incubating the assembly for 2 minutes at 47° C.
An intensity value ranging from 0 to 10 is attributed to the bands detected, the value 10 being given to the most intense band and the value 0 being given to the least intense band. According to this scale, a value of 6 is assigned to the reference band. The intensity of the signal observed in the first band is inversely proportional to the amount of penicillin G present in the sample.
In this example, when the first band has an intesity less than that of the second band, the test is considered as being positive.

| SMILES | concentration detected in milk [1] | concentration detected in a sample of milk (BlaR-CTD receptor) | Intensity 1st band (BlaR-CTD receptor; 1 ppb penicillin G in milk) | Intensity 1st band (BlaR-CTD receptor; 2 ppb penicillin G in milk) | Intensity 1st band (BlaR-CTD receptor; 3 ppb penicillin G in milk) | Intensity 1st band (BlaR-CTD receptor; 4 ppb penicillin G in milk) | Intensity 1st band (BlaR-CTD receptor; 5 ppb penicillin G in milk) | Intensity 1st band (BlaR-CTD receptor; 6 ppb penicillin G in milk) |
| --- | --- | --- | --- | --- | --- | --- | --- | --- |
| CO/N=C(\C(=O)N[C@@H]1C(=O)N2C(C(=O)O)=C(CSC(=O)c3ccco3)CS[C@H]12)c1csc(N)n1 [ceftiofur] | < 50 ppb | – | – | – | – | – | – | – |
| CC(=O)OCC1=C(C(=O)O)N2C(=O)[C@@H](NC(=O)CSc3ccncc3)[C@H]2SC1 [cephapirin] | < 20 ppb | 20 ppb | – | – | – | – | – | – |
| CC1(C)S[C@@H]2[C@H](NC(=O)Cc3ccccc3)C(=O)N2[C@H]1C(=O)O [penicillin G] | < 5 ppb | less than 4 ppb | 9 | 9 | 4 | 0 | 0 | 0 |
